Assay results from patent US10597388B2, “Pyridazinone herbicides” (FMC CORPORATION, priority 2014, dated 2020).

Legend:
Assay type in all cases: in vivo
[1] = system: blackgrass (Alopecurus myosuroides); experiment: Test A greenhouse herbicide test, postemergence; details: for Blackgrass plant response rating: 0 to 100 scale, 0 is no effect, 100 is complete control
How it was run: (§1)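 Seedlings in a loam soil and sand mix received formulated compound postemergence at the one- to two-leaf stage. Greenhouse holding lasts approximately 10 d, then injury is scored visually relative to untreated plants, 0 meaning no effect and 100 complete control.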

[2] = system: galium (catchweed bedstraw, Galium aparine); experiment: Test A greenhouse herbicide test, postemergence; details: for Galium plant response rating: 0 to 100 scale, 0 is no effect, 100 is complete control
How it was run: as §1

[3] = system: ragweed (common ragweed, Ambrosia elatior); experiment: Test A greenhouse herbicide test, pre- and postemergence
Source text: (§2) Seeds of plant species selected from barnyardgrass (Echinochloa crus-galli), kochia (Kochia scoparia), ragweed (common ragweed, Ambrosia elatior), ryegrass, Italian (Italian ryegrass, Lolium multiflorum), crabgrass, large (large crabgrass, Digitaria sanguinalis), foxtail, giant (giant foxtail, Setaria faberii), momingglory (Ipomoea spp.), pigweed (Amaranthus retroflexus), velvetleaf (Abutilon theophrasti), wheat (Triticum aestivum), and corn (Zea mays) were planted into a blend of loam soil and sand and treated preemergence with a directed soil spray using test chemicals formulated in a non-phytotoxic solvent mixture which included a surfactant.
(§3) At the same time, plants selected from these crop and weed species and also blackgrass (Alopecurus myosuroides), and galium (catchweed bedstraw, Galium aparine) were planted in pots containing the same blend of loam soil and sand and treated with postemergence applications of test chemicals formulated in the same manner. Plants ranged in height from 2 to 10 cm and were in the one- to two-leaf stage for the postemergence treatment. Treated plants and untreated controls were maintained in a greenhouse for approximately 10 d, after which time all treated plants were compared to untreated controls and visually evaluated for injury. Plant response ratings, summarized in Table A, are based on a 0 to 100 scale where 0 is no effect and 100 is complete control. A dash (-) response means no test result.

[4] = system: foxtail, giant (giant foxtail, Setaria faberii); experiment: as above
Source text: as §2, §3

[5] = system: corn (Zea mays); experiment: as above; details: Postemergence; for Corn plant response rating: 0 to 100 scale, 0 is no effect, 100 is complete control
Source text: as §2, §3

[6] = system: wheat (Triticum aestivum); experiment: as above; details: Postemergence; for Wheat plant response rating: 0 to 100 scale, 0 is no effect, 100 is complete control
Source text: as §2, §3

[7] = system: kochia (Kochia scoparia); experiment: as above
Source text: as §2, §3

[8] = system: pigweed (Amaranthus retroflexus); experiment: as above
Source text: as §2, §3

[9] = system: barnyardgrass (Echinochloa crus-galli); experiment: as above
Source text: as §2, §3

[10] = system: ryegrass, Italian (Italian ryegrass, Lolium multiflorum); experiment: as above
Source text: as §2, §3

[11] = system: rice (Oryza sativa); experiment: Test B flooded paddy test; details: 250 g ai/ha, Flood; visual rating on scale of 0 to 100 where 0 is no effect and 100 is complete control; 13 to 15 d after treatment
How it was run: (§4)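 Ratings use a 0-100 visual scale, where 100 is complete control, and compare treated plants with controls after 13 to 15 d of greenhouse growth. Compound went straight into paddy water kept 3 cm over the soil surface, applied to seedlings at the 2-leaf stage.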

[12] = system: ducksalad (Heteranthera limosa); experiment: Test B flooded paddy test; details: 250 g ai/ha, Flood; visual rating on scale of 0 to 100 where 0 is no effect and 100 is complete control; 13 to 15 d after treatment
How it was run: as §4

[13] = system: barnyardgrass (Echinochloa crus-galli); experiment: Test B flooded paddy test; details: 250 g ai/ha, Flood; visual rating on scale of 0 to 100 where 0 is no effect and 100 is complete control; 13 to 15 d after treatment
How it was run: as §4

[14] = system: sedge, umbrella (small-flower umbrella sedge, Cyperus difformis); experiment: Test B flooded paddy test; details: 250 g ai/ha, Flood; visual rating on scale of 0 to 100 where 0 is no effect and 100 is complete control; 13 to 15 d after treatment
How it was run: as §4

[15] = 125 g ai/ha, 0 to 100 scale where 0 is no effect and 100 is complete control
[16] = Postemergence, 125 g ai/ha, 0 to 100 scale where 0 is no effect and 100 is complete control
[17] = Postemergence, 500 g ai/ha, 0 to 100 scale, 0 is no effect, 100 is complete control
[18] = Preemergence, 125 g ai/ha, 0 to 100 scale where 0 is no effect and 100 is complete control
[19] = Preemergence, 500 g ai/ha, 0 to 100 scale, 0 no effect, 100 complete control
[20] = Postemergence, 1000 g ai/ha, 0 to 100 scale, 0 is no effect, 100 is complete control
[21] = Preemergence, 1000 g ai/ha, 0 to 100 scale, 0 no effect, 100 complete control
[22] = 500 g ai/ha, visual rating after approx. 10 d, 0 to 100 scale (0 no effect, 100 complete control)
[23] = Postemergence, 500 g ai/ha, visual rating after approx. 10 d, 0 to 100 scale (0 no effect, 100 complete control)
[24] = Preemergence, 500 g ai/ha, 0 to 100 scale where 0 is no effect and 100 is complete control
[25] = 125 g ai/ha, visual rating after approx. 10 d, 0 to 100 scale (0 no effect, 100 complete control)
[26] = Postemergence, 125 g ai/ha, visual rating after approx. 10 d, 0 to 100 scale (0 no effect, 100 complete control)

Structure (SMILES): COc1ccc2sc(C)c(-c3c(O)c(C)nn(C)c3=O)c2c1 [Compound 53]
- Plant response rating, Blackgrass [1, 15]: 0
- Blackgrass plant response rating ([1]; 500 g ai/ha): 30
- Plant response rating, Galium [2, 15]: 60
- Galium plant response rating ([2]; 500 g ai/ha): 80
- Plant response rating, Ragweed [3, 16]: 60
- Ragweed plant response rating [3, 17]: 70
- Ragweed plant response rating [3, 18]: 0
- Plant response rating, Ragweed [3, 19]: 50
- Plant response rating, Foxtail, Giant [4, 16]: 0
- Foxtail, Giant plant response rating [4, 17]: 30
- Foxtail, Giant plant response rating [4, 18]: 50
- Plant response rating, Foxtail, Giant [4, 19]: 50
- Plant response rating, Corn [5, 15]: 0
- Corn plant response rating ([5]; 500 g ai/ha): 0
- Plant response rating, Wheat [6, 15]: 0
- Wheat plant response rating ([6]; 500 g ai/ha): 20
- Plant response rating, Kochia [7, 16]: 70
- Kochia plant response rating [7, 17]: 80
- Kochia plant response rating [7, 18]: 50
- Plant response rating, Kochia [7, 19]: 70
- Plant response rating, Pigweed [8, 16]: 60
- Pigweed plant response rating [8, 17]: 70
- Pigweed plant response rating [8, 18]: 50
- Plant response rating, Pigweed [8, 19]: 70
- Plant response rating, Barnyardgrass [9, 16]: 0
- Barnyardgrass plant response rating [9, 17]: 20
- Barnyardgrass plant response rating [9, 18]: 0
- Plant response rating, Barnyardgrass [9, 19]: 20
- Plant response rating, Ryegrass, Italian [10, 16]: 40
- Ryegrass, Italian plant response rating [10, 17]: 70
- Ryegrass, Italian plant response rating [10, 18]: 10
- Plant response rating, Ryegrass, Italian [10, 19]: 50
- Plant response rating, Rice [11]: 0
- Plant response rating, Ducksalad [12]: 0
- Plant response rating, Barnyardgrass [13]: 0
- Plant response rating, Sedge, Umbrella [14]: 0

Structure (SMILES): Cc1nn(C)c(=O)c(-c2cccc3ccccc23)c1OCC(=O)C1CC1 [Compound 181]
- Blackgrass plant response rating ([1]; 1000 g ai/ha): 20
- Galium plant response rating ([2]; 1000 g ai/ha): 80
- Ragweed plant response rating [3, 20]: 30
- Plant response rating, Ragweed [3, 21]: 10
- Foxtail, Giant plant response rating [4, 20]: 0
- Plant response rating, Foxtail, Giant [4, 21]: 0
- Corn plant response rating ([5]; 1000 g ai/ha): 0
- Wheat plant response rating ([6]; 1000 g ai/ha): 0
- Kochia plant response rating [7, 20]: 0
- Plant response rating, Kochia [7, 21]: 10
- Pigweed plant response rating [8, 20]: 30
- Plant response rating, Pigweed [8, 21]: 30
- Barnyardgrass plant response rating [9, 20]: 0
- Plant response rating, Barnyardgrass [9, 21]: 0
- Ryegrass, Italian plant response rating [10, 20]: 80
- Plant response rating, Ryegrass, Italian [10, 21]: 60
- Plant response rating, Rice [11]: 0
- Plant response rating, Ducksalad [12]: 0
- Plant response rating, Barnyardgrass [13]: 0
- Plant response rating, Sedge, Umbrella [14]: 0

Structure (SMILES): CCc1nn(C)c(=O)c(-c2c(C)oc3ccc(C)cc23)c1O [Compound 118]
- Plant response rating, Blackgrass [1, 15]: 0
- Plant response rating, Blackgrass [1, 22]: 0
- Plant response rating, Galium [2, 15]: 0
- Plant response rating, Galium [2, 22]: 0
- Plant response rating, Ragweed [3, 16]: 0
- Plant response rating, Ragweed [3, 23]: 0
- Ragweed plant response rating [3, 18]: 0
- Plant response rating, Ragweed [3, 24]: 0
- Plant response rating, Foxtail, Giant [4, 16]: 0
- Plant response rating, Foxtail, Giant [4, 23]: 0
- Foxtail, Giant plant response rating [4, 18]: 0
- Plant response rating, Foxtail, Giant [4, 24]: 20
- Plant response rating, Corn [5, 15]: 0
- Plant response rating, Corn [5, 22]: 0
- Plant response rating, Wheat [6, 15]: 0
- Plant response rating, Wheat [6, 22]: 0
- Plant response rating, Kochia [7, 16]: 0
- Plant response rating, Kochia [7, 23]: 0
- Kochia plant response rating [7, 18]: 0
- Plant response rating, Kochia [7, 24]: 0
- Plant response rating, Pigweed [8, 16]: 0
- Plant response rating, Pigweed [8, 23]: 0
- Pigweed plant response rating [8, 18]: 0
- Plant response rating, Pigweed [8, 24]: 10
- Plant response rating, Barnyardgrass [9, 16]: 0
- Plant response rating, Barnyardgrass [9, 23]: 0
- Barnyardgrass plant response rating [9, 18]: 0
- Plant response rating, Barnyardgrass [9, 24]: 30
- Plant response rating, Ryegrass, Italian [10, 16]: 0
- Plant response rating, Ryegrass, Italian [10, 23]: 0
- Ryegrass, Italian plant response rating [10, 18]: 0
- Plant response rating, Ryegrass, Italian [10, 24]: 0
- Plant response rating, Rice [11]: 0
- Plant response rating, Ducksalad [12]: 0
- Plant response rating, Barnyardgrass [13]: 0
- Plant response rating, Sedge, Umbrella [14]: 0

Structure (SMILES): Cc1ccc2c(c1)c(-c1c(O)c(C)nn(C)c1=O)c(C)n2C [Compound 31]
- Plant response rating, Blackgrass [1, 25]: 0
- Blackgrass plant response rating ([1]; 500 g ai/ha): 20
- Plant response rating, Galium [2, 25]: 20
- Galium plant response rating ([2]; 500 g ai/ha): 70
- Plant response rating, Ragweed [3, 26]: 0
- Ragweed plant response rating [3, 17]: 20
- Ragweed plant response rating [3, 18]: 0
- Plant response rating, Ragweed [3, 19]: 30
- Plant response rating, Foxtail, Giant [4, 26]: 0
- Foxtail, Giant plant response rating [4, 17]: 10
- Foxtail, Giant plant response rating [4, 18]: 0
- Plant response rating, Foxtail, Giant [4, 19]: 0
- Plant response rating, Corn [5, 25]: 0
- Corn plant response rating ([5]; 500 g ai/ha): 0
- Plant response rating, Wheat [6, 15]: 0
- Wheat plant response rating ([6]; 500 g ai/ha): 0
- Plant response rating, Kochia [7, 26]: 0
- Kochia plant response rating [7, 17]: 0
- Kochia plant response rating [7, 18]: 0
- Plant response rating, Kochia [7, 19]: 0
- Plant response rating, Pigweed [8, 26]: 20
- Pigweed plant response rating [8, 17]: 40
- Pigweed plant response rating [8, 18]: 0
- Plant response rating, Pigweed [8, 19]: 0
- Plant response rating, Barnyardgrass [9, 26]: 0
- Barnyardgrass plant response rating [9, 17]: 10
- Barnyardgrass plant response rating [9, 18]: 0
- Plant response rating, Barnyardgrass [9, 19]: 0
- Plant response rating, Ryegrass, Italian [10, 16]: 0
- Ryegrass, Italian plant response rating [10, 17]: 0
- Ryegrass, Italian plant response rating [10, 18]: 0
- Plant response rating, Ryegrass, Italian [10, 19]: 0
- Plant response rating, Rice [11]: 0
- Plant response rating, Ducksalad [12]: 0
- Plant response rating, Barnyardgrass [13]: 0
- Plant response rating, Sedge, Umbrella [14]: 0
